Assay results taken from ChEMBL document CHEMBL3822398, “Design, synthesis and in vitro biological evaluation of short-chain C12-sphinganine and its 1,2,3-triazole analogs as potential antimicrobial and anti-biofilm agents” (Eur J Med Chem, 2016).
Values after ≈ are worked out from the molar mass of the structure shown.

Assays:
Format in all cases: functional
Staphylococcus aureus [1] = test: Antibacterial activity against Staphylococcus aureus MTCC 96 incubated for 24 hrs at 37 degC by well diffusion method; settings: MTCC 96, 24 h
Bacillus subtilis [2] = test: Antibacterial activity against Bacillus subtilis MTCC 121 incubated for 24 hrs at 37 degC by well diffusion method; settings: MTCC 121, 24 h
Staphylococcus aureus [3] = test: Antibacterial activity against Staphylococcus aureus MLS16 MTCC 2940 incubated for 24 hrs at 37 degC by well diffusion method; settings: MLS16 MTCC 2940, 24 h
Micrococcus luteus [4] = test: Antibacterial activity against Micrococcus luteus MTCC 2470 incubated for 24 hrs at 37 degC by well diffusion method; settings: MTCC 2470, 24 h
Raoultella planticola [5] = test: Antibacterial activity against Klebsiella planticola MTCC 530 incubated for 24 hrs at 37 degC by well diffusion method; settings: MTCC 530, 24 h
Escherichia coli [6] = test: Antibacterial activity against Escherichia coli MTCC 739 incubated for 24 hrs at 37 degC by well diffusion method; settings: MTCC 739, 24 h
Pseudomonas aeruginosa = test: Antibacterial activity against Pseudomonas aeruginosa MTCC 2453 incubated for 24 hrs at 37 degC by well diffusion method; settings: MTCC 2453, 24 h
Candida albicans [7] = test: Antifungal activity against Candida albicans MTCC 183 incubated for 24 hrs at 30 degC by well diffusion method; settings: MTCC 183, 24 h
Candida albicans [8] = test: Antifungal activity against Candida albicans MTCC 227 incubated for 24 hrs at 30 degC by well diffusion method; settings: MTCC 227, 24 h
Candida albicans [9] = test: Antifungal activity against Candida albicans MTCC 854 incubated for 24 hrs at 30 degC by well diffusion method; settings: MTCC 854, 24 h
Candida albicans [10] = test: Antifungal activity against Candida albicans MTCC 1637 incubated for 24 hrs at 30 degC by well diffusion method; settings: MTCC 1637, 24 h
Candida albicans [11] = test: Antifungal activity against Candida albicans MTCC 3017 incubated for 24 hrs at 30 degC by well diffusion method; settings: MTCC 3017, 24 h
Candida albicans [12] = test: Antifungal activity against Candida albicans MTCC 3018 incubated for 24 hrs at 30 degC by well diffusion method; settings: MTCC 3018, 24 h
Candida albicans [13] = test: Antifungal activity against Candida albicans MTCC 3958 incubated for 24 hrs at 30 degC by well diffusion method; settings: MTCC 3958, 24 h
Candida albicans [14] = test: Antifungal activity against Candida albicans MTCC 4748 incubated for 24 hrs at 30 degC by well diffusion method; settings: MTCC 4748, 24 h
Candida albicans [15] = test: Antifungal activity against Candida albicans MTCC 7315 incubated for 24 hrs at 30 degC by well diffusion method; settings: MTCC 7315, 24 h
Candida parapsilosis [16] = test: Antifungal activity against Candida parapsilosis MTCC 1744 incubated for 24 hrs at 30 degC by well diffusion method; settings: Lodderomyces parapsilosis, MTCC 1744, 24 h
[Candida] aaseri [17] = Antifungal activity against Candida aaseri MTCC 1962 incubated for 24 hrs at 30 degC by well diffusion method; settings: Yamadazyma aaseri, MTCC 1962, 24 h
Nakaseomyces glabratus [18] = test: Antifungal activity against Candida glabrata MTCC 3019 incubated for 24 hrs at 30 degC by well diffusion method; settings: MTCC 3019, 24 h
Pichia kudriavzevii [19] = test: Antifungal activity against Candida krusei MTCC 3020 incubated for 24 hrs at 30 degC by well diffusion method; settings: MTCC 3020, 24 h
Pichia sporocuriosa [20] = test: Antifungal activity against Issatchenkia hanoiensis MTCC 4755 incubated for 24 hrs at 30 degC by well diffusion method; settings: MTCC 4755, 24 h
Staphylococcus aureus [21] = test: Bactericidal activity against Staphylococcus aureus MTCC 96 incubated for 24 hrs; settings: MTCC 96, 24 h
Bacillus subtilis [22] = test: Bactericidal activity against Bacillus subtilis MTCC 121 incubated for 24 hrs; settings: MTCC 121, 24 h
Staphylococcus aureus [23] = test: Bactericidal activity against Staphylococcus aureus MLS16 MTCC 2940 incubated for 24 hrs; settings: MLS16 MTCC 2940, 24 h
Micrococcus luteus [24] = test: Bactericidal activity against Micrococcus luteus MTCC 2470 incubated for 24 hrs; settings: MTCC 2470, 24 h
Raoultella planticola [25] = test: Bactericidal activity against Klebsiella planticola MTCC 530 incubated for 24 hrs; settings: MTCC 530, 24 h
Escherichia coli [26] = test: Bactericidal activity against Escherichia coli MTCC 739 incubated for 24 hrs; settings: MTCC 739, 24 h
Candida albicans [27] = test: Fungicidal activity against Candida albicans MTCC 183 incubated for 24 hrs; settings: MTCC 183, 24 h
Candida albicans [28] = test: Fungicidal activity against Candida albicans MTCC 227 incubated for 24 hrs; settings: MTCC 227, 24 h
Candida albicans [29] = test: Fungicidal activity against Candida albicans MTCC 854 incubated for 24 hrs; settings: MTCC 854, 24 h
Candida albicans [30] = test: Fungicidal activity against Candida albicans MTCC 1637 incubated for 24 hrs; settings: MTCC 1637, 24 h
Candida albicans [31] = test: Fungicidal activity against Candida albicans MTCC 3017 incubated for 24 hrs; settings: MTCC 3017, 24 h
Candida albicans [32] = test: Fungicidal activity against Candida albicans MTCC 3018 incubated for 24 hrs; settings: MTCC 3018, 24 h
Candida albicans [33] = test: Fungicidal activity against Candida albicans MTCC 3958 incubated for 24 hrs; settings: MTCC 3958, 24 h
Candida albicans [34] = test: Fungicidal activity against Candida albicans MTCC 4748 incubated for 24 hrs; settings: MTCC 4748, 24 h
Candida albicans [35] = test: Fungicidal activity against Candida albicans MTCC 7315 incubated for 24 hrs; settings: MTCC 7315, 24 h
Candida parapsilosis [36] = test: Fungicidal activity against Candida parapsilosis MTCC 1744 incubated for 24 hrs; settings: Lodderomyces parapsilosis, MTCC 1744, 24 h
[Candida] aaseri [37] = Fungicidal activity against Candida aaseri MTCC 1962 incubated for 24 hrs; settings: Yamadazyma aaseri, MTCC 1962, 24 h
Nakaseomyces glabratus [38] = test: Fungicidal activity against Candida glabrata MTCC 3019 incubated for 24 hrs; settings: MTCC 3019, 24 h
Pichia kudriavzevii [39] = test: Fungicidal activity against Candida krusei MTCC 3020 incubated for 24 hrs; settings: MTCC 3020, 24 h
Pichia sporocuriosa [40] = test: Fungicidal activity against Issatchenkia hanoiensis MTCC 4755 incubated for 24 hrs; settings: MTCC 4755, 24 h

Compound: CCCCCCCCC[C@@H](O)[C@@H](N)CO
- MIC (Staphylococcus aureus [1]): > 250 µg/mL
- MIC (Bacillus subtilis [2]): > 250 µg/mL
- MIC (Staphylococcus aureus [3]): 31.2 µg/mL (≈ 144 µM)
- MIC (Micrococcus luteus [4]): 3.9 µg/mL (≈ 17.9 µM)
- MIC (Raoultella planticola [5]): 15.6 µg/mL (≈ 71.8 µM)
- MIC (Escherichia coli [6]): 15.6 µg/mL (≈ 71.8 µM)
- MIC (Pseudomonas aeruginosa): > 250 µg/mL
- MIC (Candida albicans [7]): 15.6 µg/mL (≈ 71.8 µM)
- MIC (Candida albicans [8]): 31.2 µg/mL (≈ 144 µM)
- MIC (Candida albicans [9]): 31.2 µg/mL (≈ 144 µM)
- MIC (Candida albicans [10]): 15.6 µg/mL (≈ 71.8 µM)
- MIC (Candida albicans [11]): 15.6 µg/mL (≈ 71.8 µM)
- MIC (Candida albicans [12]): 7.8 µg/mL (≈ 35.9 µM)
- MIC (Candida albicans [13]): 15.6 µg/mL (≈ 71.8 µM)
- MIC (Candida albicans [14]): 31.2 µg/mL (≈ 144 µM)
- MIC (Candida albicans [15]): 31.2 µg/mL (≈ 144 µM)
- MIC (Candida parapsilosis [16]): 62.5 µg/mL (≈ 288 µM)
- MIC ([Candida] aaseri [17]): 15.6 µg/mL (≈ 71.8 µM)
- MIC (Nakaseomyces glabratus [18]): 7.8 µg/mL (≈ 35.9 µM)
- MIC (Pichia kudriavzevii [19]): 15.6 µg/mL (≈ 71.8 µM)
- MIC (Pichia sporocuriosa [20]): 15.6 µg/mL (≈ 71.8 µM)
- MBC (Staphylococcus aureus [21]): > 250 µg/mL
- MBC (Bacillus subtilis [22]): > 250 µg/mL
- MBC (Staphylococcus aureus [23]): 31.2 µg/mL (≈ 144 µM)
- MBC (Micrococcus luteus [24]): 7.8 µg/mL (≈ 35.9 µM)
- MBC (Raoultella planticola [25]): 31.2 µg/mL (≈ 144 µM)
- MBC (Escherichia coli [26]): 31.2 µg/mL (≈ 144 µM)
- MFC (Candida albicans [27]): 15.6 µg/mL (≈ 71.8 µM)
- MFC (Candida albicans [28]): 62.5 µg/mL (≈ 288 µM)
- MFC (Candida albicans [29]): 31.2 µg/mL (≈ 144 µM)
- MFC (Candida albicans [30]): 15.6 µg/mL (≈ 71.8 µM)
- MFC (Candida albicans [31]): 31.2 µg/mL (≈ 144 µM)
- MFC (Candida albicans [32]): 15.6 µg/mL (≈ 71.8 µM)
- MFC (Candida albicans [33]): 31.2 µg/mL (≈ 144 µM)
- MFC (Candida albicans [34]): 31.2 µg/mL (≈ 144 µM)
- MFC (Candida albicans [35]): 62.5 µg/mL (≈ 288 µM)
- MFC (Candida parapsilosis [36]): 62.5 µg/mL (≈ 288 µM)
- MFC ([Candida] aaseri [37]): 31.2 µg/mL (≈ 144 µM)
- MFC (Nakaseomyces glabratus [38]): 7.8 µg/mL (≈ 35.9 µM)
- MFC (Pichia kudriavzevii [39]): 31.2 µg/mL (≈ 144 µM)
- MFC (Pichia sporocuriosa [40]): 15.6 µg/mL (≈ 71.8 µM)
